{"source": "patent US6355799B1", "about": "“Substituted benzene compounds, process for their preparation, and herbicidal and defoliant compositions containing them” (ISK Americas Incorporated, priority 1997, dated 2002)", "format_in_all_cases": "in vivo", "key": {"[1]": {"tested_on": "field corn (Zea mays L., var. Dekalb 535, CORN)", "assay": "Pre-emerge test, crop safety", "conditions": "pre-emerge, rated 14 days after application, 0 = no damage, 100 = complete death", "procedure,_shortened": "(§1)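 Visual ratings on a 0-100 scale (0 no damage, 100 all plants dead) were taken at 14 days after treatment. Rates of 15-1000 g ai/ha in acetone, 187 l/ha, were sprayed onto soil one day after planting (pre-emerge) or onto 2-3 leaf plants with 0.25% v/v surfactant (post-emerge).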"}, "[2]": {"tested_on": "upland rice (Oryza sp., var. Tebonnet, RICE)", "assay": "Pre-emerge test, crop safety", "conditions": "pre-emerge, rated 14 days after application, 0 = no damage, 100 = complete death", "procedure,_shortened": "as §1"}, "[3]": {"tested_on": "sicklepod (Cassia obtusifolia, CASOB)", "assay": "Pre-emerge test, greenhouse herbicide activity screening", "conditions": "pre-emerge, rated 14 days after application, 0 = no damage, 100 = complete death", "procedure,_shortened": "(§2)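 Compounds in acetone were track-sprayed at 15-1000 g ai/ha (187 l/ha) on sandy loam pots: pre-emerge one day after seeding, post-emerge at 2-3 leaf stage with 0.25% v/v non-ionic surfactant. Phytotoxicity was rated 14 days later on a 0 (no damage) to 100 (complete death) scale.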"}, "[4]": {"tested_on": "common ragweed (Ambrosia artemisizfolia L., AMBEL)", "assay": "Pre-emerge test, greenhouse herbicide activity screening", "conditions": "pre-emerge, rated 14 days after application, 0 = no damage, 100 = complete death", "procedure,_shortened": "as §2"}, "[5]": {"tested_on": "green foxtail (Setaria viridis, SETVI)", "assay": "Pre-emerge test, greenhouse herbicide activity screening", "conditions": "pre-emerge, rated 14 days after application, 0 = no damage, 100 = complete death", "procedure,_shortened": "as §2"}, "[6]": {"tested_on": "johnsongrass (Sorghum halepense, SORHA)", "assay": "Pre-emerge test, greenhouse herbicide activity screening", "conditions": "pre-emerge, rated 14 days after application, 0 = no damage, 100 = complete death", "procedure,_shortened": "as §2"}, "[7]": {"tested_on": "ivyleaf morningglory (Ipomoea hederacea, IPOHE)", "assay": "Pre-emerge test, greenhouse herbicide activity screening", "conditions": "pre-emerge, rated 14 days after application, 0 = no damage, 100 = complete death", "procedure,_shortened": "as §2"}, "[8]": {"tested_on": "large crabgrass (Digitaria sanguinalis, DIGSA)", "assay": "Pre-emerge test, greenhouse herbicide activity screening", "conditions": "pre-emerge, rated 14 days after application, 0 = no damage, 100 = complete death", "procedure,_shortened": "as §2"}, "[9]": {"tested_on": "barnyardgrass (Echinochloa crus-galli, ECHCG)", "assay": "Pre-emerge test, greenhouse herbicide activity screening", "conditions": "pre-emerge, rated 14 days after application, 0 = no damage, 100 = complete death", "procedure,_shortened": "as §2"}, "[10]": {"tested_on": "lambsquarters (Chenopodium album, CHEAL)", "assay": "Pre-emerge test, greenhouse herbicide activity screening", "conditions": "pre-emerge, rated 14 days after application, 0 = no damage, 100 = complete death", "procedure,_shortened": "as §2"}, "[11]": {"tested_on": "velvetleaf (Abutilon theophrasti, ABUTH)", "assay": "Pre-emerge test, greenhouse herbicide activity screening", "conditions": "pre-emerge, rated 14 days after application, 0 = no damage, 100 = complete death", "procedure,_shortened": "as §2"}, "[12]": {"tested_on": "redroot pigweed (Amaranthus retroflexus, AMARE)", "assay": "Pre-emerge test, greenhouse herbicide activity screening", "conditions": "pre-emerge, rated 14 days after application, 0 = no damage, 100 = complete death", "procedure,_shortened": "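Herbicidal damage is scored 0 (none) to 100 (complete plant death) two weeks after a simulated field spray. Rates span 15–1000 g ai/ha, delivered in acetone at 187 l/ha. For post-emergence treatments, plants have 2–3 leaves and the spray carries 0.25% v/v non-ionic surfactant.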"}, "[13]": {"tested_on": "field corn (Zea mays L., var. Dekalb 535, CORN)", "assay": "Post-emerge test, crop safety", "conditions": "phytotoxicity rating 0-100 (0 no damage, 100 complete death), 14 days after application", "procedure,_shortened": "as §2"}, "[14]": {"tested_on": "upland rice (Oryza sp., var. Tebonnet, RICE)", "assay": "Post-emerge test, crop safety", "conditions": "phytotoxicity rating 0-100 (0 no damage, 100 complete death), 14 days after application", "procedure,_shortened": "as §2"}, "[15]": {"tested_on": "sicklepod (Cassia obtusifolia, CASOB)", "assay": "Post-emerge test, greenhouse herbicide activity screening", "conditions": "phytotoxicity rating 0-100 (0 no damage, 100 complete death), 14 days after application", "procedure,_shortened": "(§3)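 Applied at 15–1000 g ai/ha from acetone in 187 l/ha spray volume. Post-emergence applications included 0.25% v/v non-ionic surfactant and reached plants sown 8–21 days before. Pre-emergence applications were incorporated by surface watering. Efficacy or crop damage was rated on a 0–100 scale after 14 days.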"}, "[16]": {"tested_on": "common ragweed (Ambrosia artemisizfolia L., AMBEL)", "assay": "Post-emerge test, greenhouse herbicide activity screening", "conditions": "phytotoxicity rating 0-100 (0 no damage, 100 complete death), 14 days after application", "procedure,_shortened": "as §3"}, "[17]": {"tested_on": "green foxtail (Setaria viridis, SETVI)", "assay": "Post-emerge test, greenhouse herbicide activity screening", "conditions": "phytotoxicity rating 0-100 (0 no damage, 100 complete death), 14 days after application", "procedure,_shortened": "as §3"}, "[18]": {"tested_on": "johnsongrass (Sorghum halepense, SORHA)", "assay": "Post-emerge test, greenhouse herbicide activity screening", "conditions": "phytotoxicity rating 0-100 (0 no damage, 100 complete death), 14 days after application", "procedure,_shortened": "as §3"}, "[19]": {"tested_on": "ivyleaf morningglory (Ipomoea hederacea, IPOHE)", "assay": "Post-emerge test, greenhouse herbicide activity screening", "conditions": "phytotoxicity rating 0-100 (0 no damage, 100 complete death), 14 days after application", "procedure,_shortened": "as §3"}, "[20]": {"tested_on": "large crabgrass (Digitaria sanguinalis, DIGSA)", "assay": "Post-emerge test, greenhouse herbicide activity screening", "conditions": "phytotoxicity rating 0-100 (0 no damage, 100 complete death), 14 days after application", "procedure,_shortened": "as §3"}, "[21]": {"tested_on": "barnyardgrass (Echinochloa crus-galli, ECHCG)", "assay": "Post-emerge test, greenhouse herbicide activity screening", "conditions": "phytotoxicity rating 0-100 (0 no damage, 100 complete death), 14 days after application", "procedure,_shortened": "as §3"}, "[22]": {"tested_on": "lambsquarters (Chenopodium album, CHEAL)", "assay": "Post-emerge test, greenhouse herbicide activity screening", "conditions": "phytotoxicity rating 0-100 (0 no damage, 100 complete death), 14 days after application", "procedure,_shortened": "as §3"}, "[23]": {"tested_on": "redroot pigweed (Amaranthus retroflexus, AMARE)", "assay": "Post-emerge test, greenhouse herbicide activity screening", "conditions": "phytotoxicity rating 0-100 (0 no damage, 100 complete death), 14 days after application", "procedure,_shortened": "as §3"}, "[24]": {"tested_on": "velvetleaf (Abutilon theophrasti, ABUTH)", "assay": "Post-emerge test, greenhouse herbicide activity screening", "conditions": "phytotoxicity rating 0-100 (0 no damage, 100 complete death), 14 days after application", "procedure,_shortened": "as §3"}}}
{"smiles": "COc1c(Cl)cc(F)c(-n2c(=O)cc(C(F)(F)F)n(C)c2=O)c1NC(=O)c1ccc(C)cc1", "note": "[2-24]", "values": [{"measurement": "Pre-emerge crop damage CORN (phytotoxicity rating, scale 0-100)", "setting": "[1]; 63 g ai/ha", "result": 95}, {"measurement": "Pre-emerge crop damage CORN (phytotoxicity rating, scale 0-100)", "setting": "[1]; 250 g ai/ha", "result": 98}, {"measurement": "Pre-emerge crop damage RICE (phytotoxicity rating, scale 0-100)", "setting": "[2]; 63 g ai/ha", "result": 90}, {"measurement": "Pre-emerge crop damage RICE (phytotoxicity rating, scale 0-100)", "setting": "[2]; 250 g ai/ha", "result": 99}, {"measurement": "Pre-emerge Herbicidal Activity CASOB (phytotoxicity rating, scale 0-100)", "setting": "[3]; 63 g ai/ha", "result": 90}, {"measurement": "Pre-emerge Herbicidal Activity CASOB (phytotoxicity rating, scale 0-100)", "setting": "[3]; 250 g ai/ha", "result": 100}, {"measurement": "Pre-emerge Herbicidal Activity AMBEL (phytotoxicity rating, scale 0-100)", "setting": "[4]; 63 g ai/ha", "result": 100}, {"measurement": "Pre-emerge Herbicidal Activity AMBEL (phytotoxicity rating, scale 0-100)", "setting": "[4]; 250 g ai/ha", "result": 100}, {"measurement": "Pre-emerge Herbicidal Activity SETVI (phytotoxicity rating, scale 0-100)", "setting": "[5]; 63 g ai/ha", "result": 100}, {"measurement": "Pre-emerge Herbicidal Activity SETVI (phytotoxicity rating, scale 0-100)", "setting": "[5]; 250 g ai/ha", "result": 100}, {"measurement": "Pre-emerge Herbicidal Activity SORHA (phytotoxicity rating, scale 0-100)", "setting": "[6]; 63 g ai/ha", "result": 95}, {"measurement": "Pre-emerge Herbicidal Activity SORHA (phytotoxicity rating, scale 0-100)", "setting": "[6]; 250 g ai/ha", "result": 100}, {"measurement": "Pre-emerge Herbicidal Activity IPOHE (phytotoxicity rating, scale 0-100)", "setting": "[7]; 63 g ai/ha", "result": 100}, {"measurement": "Pre-emerge Herbicidal Activity IPOHE (phytotoxicity rating, scale 0-100)", "setting": "[7]; 250 g ai/ha", "result": 100}, {"measurement": "Pre-emerge Herbicidal Activity DIGSA (phytotoxicity rating, scale 0-100)", "setting": "[8]; 63 g ai/ha", "result": 100}, {"measurement": "Pre-emerge Herbicidal Activity DIGSA (phytotoxicity rating, scale 0-100)", "setting": "[8]; 250 g ai/ha", "result": 100}, {"measurement": "Pre-emerge Herbicidal Activity ECHCG (phytotoxicity rating, scale 0-100)", "setting": "[9]; 63 g ai/ha", "result": 95}, {"measurement": "Pre-emerge Herbicidal Activity ECHCG (phytotoxicity rating, scale 0-100)", "setting": "[9]; 250 g ai/ha", "result": 100}, {"measurement": "Pre-emerge Herbicidal Activity CHEAL (phytotoxicity rating, scale 0-100)", "setting": "[10]; 63 g ai/ha", "result": 100}, {"measurement": "Pre-emerge Herbicidal Activity CHEAL (phytotoxicity rating, scale 0-100)", "setting": "[10]; 250 g ai/ha", "result": 100}, {"measurement": "Pre-emerge Herbicidal Activity ABUTH (phytotoxicity rating, scale 0-100)", "setting": "[11]; 63 g ai/ha", "result": 100}, {"measurement": "Pre-emerge Herbicidal Activity ABUTH (phytotoxicity rating, scale 0-100)", "setting": "[11]; 250 g ai/ha", "result": 100}, {"measurement": "Pre-emerge Herbicidal Activity AMARE (phytotoxicity rating, scale 0-100)", "setting": "[12]; 63 g ai/ha", "result": 100}, {"measurement": "Pre-emerge Herbicidal Activity AMARE (phytotoxicity rating, scale 0-100)", "setting": "[12]; 250 g ai/ha", "result": 100}, {"measurement": "Post-emerge Herbicidal Activity CORN (crop damage)", "setting": "[13]; 63 g ai/ha", "result": 70}, {"measurement": "Post-emerge Herbicidal Activity CORN (crop damage)", "setting": "[13]; 250 g ai/ha", "result": 95}, {"measurement": "Post-emerge Herbicidal Activity RICE (crop damage)", "setting": "[14]; 63 g ai/ha", "result": 70}, {"measurement": "Post-emerge Herbicidal Activity RICE (crop damage)", "setting": "[14]; 250 g ai/ha", "result": 90}, {"measurement": "Post-emerge Herbicidal Activity CASOB", "setting": "[15]; 63 g ai/ha", "result": 100}, {"measurement": "Post-emerge Herbicidal Activity CASOB", "setting": "[15]; 250 g ai/ha", "result": 100}, {"measurement": "Post-emerge Herbicidal Activity AMBEL", "setting": "[16]; 63 g ai/ha", "result": 100}, {"measurement": "Post-emerge Herbicidal Activity AMBEL", "setting": "[16]; 250 g ai/ha", "result": 100}, {"measurement": "Post-emerge Herbicidal Activity SETVI", "setting": "[17]; 63 g ai/ha", "result": 20}, {"measurement": "Post-emerge Herbicidal Activity SETVI", "setting": "[17]; 250 g ai/ha", "result": 70}, {"measurement": "Post-emerge Herbicidal Activity SORHA", "setting": "[18]; 63 g ai/ha", "result": 60}, {"measurement": "Post-emerge Herbicidal Activity SORHA", "setting": "[18]; 250 g ai/ha", "result": 90}, {"measurement": "Post-emerge Herbicidal Activity IPOHE", "setting": "[19]; 63 g ai/ha", "result": 100}, {"measurement": "Post-emerge Herbicidal Activity IPOHE", "setting": "[19]; 250 g ai/ha", "result": 100}, {"measurement": "Post-emerge Herbicidal Activity DIGSA", "setting": "[20]; 63 g ai/ha", "result": 10}, {"measurement": "Post-emerge Herbicidal Activity DIGSA", "setting": "[20]; 250 g ai/ha", "result": 50}, {"measurement": "Post-emerge Herbicidal Activity ECHCG", "setting": "[21]; 63 g ai/ha", "result": 70}, {"measurement": "Post-emerge Herbicidal Activity ECHCG", "setting": "[21]; 250 g ai/ha", "result": 95}, {"measurement": "Post-emerge Herbicidal Activity CHEAL", "setting": "[22]; 63 g ai/ha", "result": 99}, {"measurement": "Post-emerge Herbicidal Activity CHEAL", "setting": "[22]; 250 g ai/ha", "result": 100}, {"measurement": "Post-emerge Herbicidal Activity AMARE", "setting": "[23]; 63 g ai/ha", "result": 100}, {"measurement": "Post-emerge Herbicidal Activity AMARE", "setting": "[23]; 250 g ai/ha", "result": 100}, {"measurement": "Post-emerge Herbicidal Activity ABUTH", "setting": "[24]; 63 g ai/ha", "result": 100}, {"measurement": "Post-emerge Herbicidal Activity ABUTH", "setting": "[24]; 250 g ai/ha", "result": 100}]}
